Our source for the CC50 and IC50 values is US20110224208A1, “NOVEL INHIBITORS OF FLAVIVIRUS REPLICATION” (KATHOLIEKE UNIVERSITEIT LEUVEN, K.U. LEUVEN R&D, priority 2008, published 2011).

In brackets after ≈: the same amount, converted by molar mass.

Data set [1] in a line: Proliferation of exponentially growing Huh-5-2 cells (MTS method). The following applies: human, CC50, concentration required to inhibit the proliferation of exponentially growing Huh-5-2 cells by 50%; Table 2. The protocol: (§1) Cells were seeded at a density of 7000 cells per well in 96 well View Plate™ (Packard) in medium containing the same components as described above, except for G418. Cells were allowed to adhere and proliferate for 24 hr. At that time, culture medium was removed and serial dilutions of the test compounds were added in culture medium lacking G418. Interferon alfa 2a (500 IU) was included as a positive control. Plates were further incubated at 37° C. and 5% CO2 for 72 hours. Replication of the HCV replicon in Huh-5 cells results in luciferase activity in the cells. Luciferase activity is measured by adding 50 μl of 1×Glo-lysis buffer (Promega) for 15 minutes followed by 50 ul of the Steady-Glo Luciferase assay reagent (Promega). Luciferase activity is measured with a luminometer and the signal in each individual well is expressed as a percentage of the untreated cultures. […] Instead the density of the culture is measured by means of the MTS method (Promega).

Data set [2] has as its system HCV replicon I389luc-ubi-neo/NS3-3'/5.1. The data set can be described thus: Anti-HCV replicon assay (luciferase activity) in Huh-5-2 cells. The following applies: Hepatitis C virus, Huh-5-2, 72 h, concentration required to inhibit luciferase activity in the replicon system by 50%. Type of data set: cell-based, Hepatitis C virus. The protocol: as §1
A general note: A replicon is a self-replicating genome or part of one, used to study replication in cells.

The molecule `COCCN1C(=O)c2ccccc2C(C(=O)Nc2ccc(-c3ccn(C)n3)cc2)C1c1cccs1` (centres unmarked) [C203, 2-(2-methoxyethyl)-N-(4-(1-methyl-1H-pyrazol-3-yl)phenyl)-1-oxo-3-(thiophen-2-yl)-1,2,3,4-tetrahydroisoquinoline-4-carboxamide] gave a CC50 at 72 h in data set [1] of 9.4 µg/mL (≈ 19.3 µM). Besides, in data set [2], the IC50 was 0.019 µg/mL (≈ 0.039 µM). Molecule `COCCN1C(=O)c2ccccc2C(C(=O)Nc2ccc3c(c2)COC3)C1c1cccs1` (centres unmarked) [C190, N-(1,3-dihydroisobenzofuran-5-yl)-2-(2-methoxyethyl)-1-oxo-3-(thiophen-2-yl)-1,2,3,4-tetrahydroisoquinoline-4-carboxamide] showed a CC50 at 72 h in data set [1] of 75.9 µg/mL (≈ 169 µM). This molecule yielded an IC50 in data set [2] of 0.14 µg/mL (≈ 0.312 µM). As to `COCCN1C(=O)c2ccccc2C(C(=O)Nc2ccccc2)C1c1cccs1` (centres unmarked) [C18, 2-(2-Methoxyethyl)-1-oxo-N-phenyl-3-(thiophen-2-yl)-1,2,3,4-tetrahydroisoquinoline-4-carboxamide], in data set [1], the midpoint of cytotoxicity, the CC50 at 72 h, lay at 78.2 µg/mL (≈ 192 µM). This molecule also displayed an IC50 in data set [2] of 2.65 µg/mL (≈ 6.52 µM). `COCCN1C(=O)c2ccccc2C(C(=O)Nc2cc(-c3ccccc3)nn2C)C1c1cccs1` (centres unmarked) [C208, 2-(2-methoxyethyl)-N-(1-methyl-3-phenyl-1H-pyrazol-5-yl)-1-oxo-3-(thiophen-2-yl)-1,2,3,4-tetrahydroisoquinoline-4-carboxamide] showed a CC50 at 72 h in data set [1] of 7.94 µg/mL (≈ 16.3 µM). Besides, the IC50 in data set [2] was found to be 0.39 µg/mL (≈ 0.801 µM).

Consider `COCCN1C(=O)c2ccccc2C(C(=O)Nc2nc(C(C)(C)C)cs2)C1c1cccs1` (centres unmarked) [C177, N-(4-tert-butylthiazol-2-yl)-2-(2-methoxyethyl)-1-oxo-3-(thiophen-2-yl)-1,2,3,4-tetrahydroisoquinoline-4-carboxamide], for which the CC50 at 72 h in data set [1] was 3.16 µg/mL (≈ 6.73 µM). The molecule further registered an IC50 in data set [2] of 0.5 µg/mL (≈ 1.06 µM).

With `COc1cccc(NC(=O)C2c3ccccc3C(=O)N(CCOC(C)C)C2c2cccs2)c1` (centres unmarked) [C66, 2-(2-Isopropoxyethyl)-N-(3-methoxyphenyl)-1-oxo-3-(thiophen-2-yl)-1,2,3,4-tetrahydroisoquinoline-4-carboxamide], it took 39.2 µg/mL (≈ 84.4 µM) to reach half-maximal cytotoxicity in data set [1] (CC50 at 72 h). The same molecule came in with an IC50 in data set [2] of 1.99 µg/mL (≈ 4.28 µM). `COCCN1C(=O)c2ccccc2C(C(=O)Nc2cccc(OC)c2)C1c1cccc(F)c1` (centres unmarked) [C8, 3-(3-Fluorophenyl)-2-(2-methoxyethyl)-N-(3-methoxyphenyl)-1-oxo-1,2,3,4-tetrahydroisoquinoline-4-carboxamide]: half-maximal cytotoxicity in data set [1] (CC50 at 72 h) was put at 54.5 µg/mL (≈ 122 µM). In data set [2], half-maximal inhibition (IC50) required 21.8 µg/mL (≈ 48.6 µM). With `COCCN1C(=O)c2ccccc2C(C(=O)N(C)c2cccc(OC)c2)C1c1cccs1` (centres unmarked) [C151, 2-(2-methoxyethyl)-N-(3-methoxyphenyl)-N-methyl-1-oxo-3-(thiophen-2-yl)-1,2,3,4-tetrahydroisoquinoline-4-carboxamide], the cytotoxic concentration (CC50) at 72 h in data set [1] was found to be 52 µg/mL (≈ 115 µM). Half-maximal inhibition in data set [2] (IC50) required 22.8 µg/mL (≈ 50.7 µM). Molecule `COCCN1C(=O)c2ccccc2C(C(=O)Nc2cc(C3CC3)nn2C)C1c1cccs1` (centres unmarked) [C197, N-(3-cyclopropyl-1-methyl-1H-pyrazol-5-yl)-2-(2-methoxyethyl)-1-oxo-3-(thiophen-2-yl)-1,2,3,4-tetrahydroisoquinoline-4-carboxamide] showed an IC50 in data set [2] of 4 µg/mL (≈ 8.88 µM).

In data set [2], `CCCCN1C(=O)c2ccccc2C(C(=O)Nc2cccc(OC)c2)C1c1cccs1` (centres unmarked) [C16, 2-Butyl-N-(3-methoxyphenyl)-1-oxo-3-(thiophen-2-yl)-1,2,3,4-tetrahydroisoquinoline-4-carboxamide] gave an IC50 of 1.1 µg/mL (≈ 2.53 µM). In data set [2], `COCCN1C(=O)c2cc([N+](=O)[O-])ccc2C(C(=O)Nc2cccc(OC)c2)C1c1cccs1` (centres unmarked) [C3, 2-(2-methoxyethyl)-N-(3-methoxyphenyl)-7-nitro-1-oxo-3-(thiophen-2-yl)-1,2,3,4-tetrahydroisoquinoline-4-carboxamide] showed a half-inhibitory concentration (IC50) of 40.9 µg/mL (≈ 84.9 µM). In the case of `COCCN1C(=O)c2ccccc2C(C(=O)Nc2cccc(-c3cnco3)c2)C1c1cccs1` (centres unmarked) [C210, 2-(2-methoxyethyl)-N-(3-(oxazol-5-yl)phenyl)-1-oxo-3-(thiophen-2-yl)-1,2,3,4-tetrahydroisoquinoline-4-carboxamide], 0.072 µg/mL (≈ 0.152 µM) corresponded to half-maximal inhibition in data set [2] (IC50). For `COCCN1C(=O)c2ccccc2C(C(=O)Nc2cc(-c3ccccc3)[nH]n2)C1c1cccs1` (centres unmarked) [C182, 2-(2-methoxyethyl)-1-oxo-N-(5-phenyl-1H-pyrazol-3-yl)-3-(thiophen-2-yl)-1,2,3,4-tetrahydroisoquinoline-4-carboxamide], the IC50 in data set [2] is 21.8 µg/mL (≈ 46.1 µM).

As to `COCCN1C(=O)c2ccccc2C(C(=O)Nc2ccc3occc3c2)C1c1cccs1` (centres unmarked) [C195, N-(benzofuran-5-yl)-2-(2-methoxyethyl)-1-oxo-3-(thiophen-2-yl)-1,2,3,4-tetrahydroisoquinoline-4-carboxamide], the IC50 in data set [2] came out at 0.13 µg/mL (≈ 0.291 µM). Consider `COCCN1C(=O)c2ccccc2C(C(=O)Nc2ccc(NC(C)=O)cc2)C1c1cccs1` (centres unmarked) [C129, N-(4-acetamidophenyl)-2-(2-methoxyethyl)-1-oxo-3-(thiophen-2-yl)-1,2,3,4-tetrahydroisoquinoline-4-carboxamide], for which the IC50 in data set [2] is 6.66 µg/mL (≈ 14.4 µM). The molecule `COCCN1C(=O)c2ccccc2C(C(=O)Nc2ccc(C(=O)OC)c(OC)c2)C1c1cccs1` (centres unmarked) [C114, methyl 2-methoxy-4-(2-(2-methoxyethyl)-1-oxo-3-(thiophen-2-yl)-1,2,3,4-tetrahydroisoquinoline-4-carboxamido)benzoate] gave an IC50 in data set [2] of 0.47 µg/mL (≈ 0.95 µM). On the same count and under the same terms, the same measure for `COCCN1C(=O)c2ccccc2C(C(=O)Nc2cccc(OC)c2)C1c1ccnn1C` (centres unmarked) [C105, 2-(2-methoxyethyl)-N-(3-methoxyphenyl)-3-(1-methyl-1H-pyrazol-5-yl)-1-oxo-1,2,3,4-tetrahydroisoquinoline-4-carboxamide]: 50.5 µg/mL (≈ 116 µM). With `COc1cccc(NC(=O)C2c3ccccc3C(=O)N(Cc3ccco3)C2c2cccs2)c1` (centres unmarked) [C4, 2-(Furan-2-ylmethyl)-N-(3-methoxyphenyl)-1-oxo-3-(thiophen-2-yl)-1,2,3,4-tetrahydroisoquinoline-4-carboxamide], in data set [2], the half-inhibitory concentration (IC50) came to 41.5 µg/mL (≈ 90.6 µM).

Consider `COCCN1C(=O)c2ccccc2C(C(=O)Nc2cc(C)nn2C)C1c1cccs1` (centres unmarked) [C109, N-(1,3-dimethyl-1H-pyrazol-5-yl)-2-(2-methoxyethyl)-1-oxo-3-(thiophen-2-yl)-1,2,3,4-tetrahydroisoquinoline-4-carboxamide], for which the half-inhibitory concentration (IC50) in data set [2] stood at 43.4 µg/mL (≈ 102 µM). `COc1cccc(NC(=O)C2c3ccccc3C(=O)N(CC3CCCCC3)C2c2cccs2)c1` (centres unmarked) [C22, 2-(Cyclohexylmethyl)-N-(3-methoxyphenyl)-1-oxo-3-(thiophen-2-yl)-1,2,3,4-tetrahydroisoquinoline-4-carboxamide] yielded a concentration for half-maximal inhibition (IC50) in data set [2] of 4.09 µg/mL (≈ 8.62 µM). As to `COCCN1C(=O)c2cc(N)ccc2C(C(=O)Nc2cccc(OC)c2)C1c1cccs1` (centres unmarked) [C147, 7-amino-2-(2-methoxyethyl)-N-(3-methoxyphenyl)-1-oxo-3-(thiophen-2-yl)-1,2,3,4-tetrahydroisoquinoline-4-carboxamide], in data set [2], inhibition was half-maximal at 0.14 µg/mL (≈ 0.31 µM) (IC50). Molecule `COCCN1C(=O)c2ccccc2C(C(=O)Nc2ccc(OC(F)(F)F)cc2)C1c1cccs1` (centres unmarked) [C113, 2-(2-methoxyethyl)-1-oxo-3-(thiophen-2-yl)-N-(4-(trifluoromethoxy)phenyl)-1,2,3,4-tetrahydroisoquinoline-4-carboxamide] registered a half-maximal inhibitory concentration (IC50) in data set [2] of 0.19 µg/mL (≈ 0.387 µM). The same measure, in the same setting: then `COCCN1C(=O)c2ccccc2C(C(=O)Nc2cccc(OC(F)(F)F)c2)C1c1cccs1` (centres unmarked) [C112, 2-(2-methoxyethyl)-1-oxo-3-(thiophen-2-yl)-N-(3-(trifluoromethoxy)phenyl)-1,2,3,4-tetrahydroisoquinoline-4-carboxamide], with 0.31 µg/mL (≈ 0.632 µM); and `COCCN1C(=O)c2ccccc2C(C(=O)Nc2ccc(F)c(Cl)c2)C1c1cccs1` (centres unmarked) [C94, N-(3-chloro-4-fluorophenyl)-2-(2-methoxyethyl)-1-oxo-3-(thiophen-2-yl)-1,2,3,4-tetrahydroisoquinoline-4-carboxamide], with 0.25 µg/mL (≈ 0.545 µM). In data set [2], `COCCN1C(=O)c2ccccc2C(C(=O)Nc2cccc(OC)c2)C1c1cccn1C` (centres unmarked) [C106, 2-(2-methoxyethyl)-N-(3-methoxyphenyl)-3-(1-methyl-1H-pyrrol-2-yl)-1-oxo-1,2,3,4-tetrahydroisoquinoline-4-carboxamide] showed an IC50 of 44.4 µg/mL (≈ 103 µM). As for `COCCN1C(=O)c2ccccc2C(C(=O)Nc2cccc(-n3cccc3)c2)C1c1cccs1` (centres unmarked) [C115, N-(3-(1H-pyrrol-1-yl)phenyl)-2-(2-methoxyethyl)-1-oxo-3-(thiophen-2-yl)-1,2,3,4-tetrahydroisoquinoline-4-carboxamide], the IC50 in data set [2] turned out to be 0.29 µg/mL (≈ 0.615 µM). In data set [2], `COc1cccc(NC(=O)C2c3ccccc3C(=O)N(CCSC)C2c2cccs2)c1` (centres unmarked) [C63, N-(3-methoxyphenyl)-2-(2-(methylthio)ethyl)-1-oxo-3-(thiophen-2-yl)-1,2,3,4-tetrahydroisoquinoline-4-carboxamide] came in with an IC50 of 3.21 µg/mL (≈ 7.09 µM).

In data set [2], `COCCN1C(=O)c2ccccc2C(C(=O)Nc2ccccc2-c2ccccc2)C1c1cccs1` (centres unmarked) [C84, N-(biphenyl-2-yl)-2-(2-methoxyethyl)-1-oxo-3-(thiophen-2-yl)-1,2,3,4-tetrahydroisoquinoline-4-carboxamide] displayed a concentration for half-maximal inhibition (IC50) of 12 µg/mL (≈ 24.9 µM). Turning to `COCCN1C(=O)c2ccccc2C(C(=O)Nc2ccc(CN3CCOCC3)cc2)C1c1cccs1` (centres unmarked) [C188, 2-(2-methoxyethyl)-N-(4-(morpholinomethyl)phenyl)-1-oxo-3-(thiophen-2-yl)-1,2,3,4-tetrahydroisoquinoline-4-carboxamide], the IC50 in data set [2] worked out at 0.1 µg/mL (≈ 0.198 µM). On the same count and under the same terms, then `COCCN1C(=O)c2ccccc2C(C(=O)Nc2cccc(OC)c2)C1c1cc2ccccc2s1` (centres unmarked) [C27, 3-(Benzo[b]thiophen-2-yl)-2-(2-methoxyethyl)-N-(3-methoxyphenyl)-1-oxo-1,2,3,4-tetrahydroisoquinoline-4-carboxamide], with 17.4 µg/mL (≈ 35.8 µM).

As usually defined, the CC50 is the concentration that lowers cell viability or growth by half. Read a high CC50 as lower toxicity to the cells. Broadly, the IC50 is the concentration needed to halve the response being measured.
